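These data come from cells grown in 96-well plates and exposed to compound for 48 hours at five concentrations. Abbreviation: GI50, concentration required for 50% inhibition of growth.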 Calls of active or inactive are those of the source. No stated cut-off is given here; in the data, active = GI50 up to about 1.1 µM and inactive = higher.
What was measured:
Experiment in all cases: NCI tumour cell line growth inhibition, 48 h
COLO 205 = tested on: COLO 205
HCT-116 = tested on: HCT-116
HOP-62 = tested on: HOP-62
HOP-92 = tested on: HOP-92
HT-29 = tested on: HT-29
MOLT-4 = tested on: MOLT-4
NCI-H460 = tested on: NCI-H460
OVCAR-4 = tested on: OVCAR-4
OVCAR-8 = tested on: OVCAR-8
SF-295 = tested on: SF-295
SK-MEL-28 = tested on: SK-MEL-28
SK-OV-3 = tested on: SK-OV-3
SNB-75 = tested on: SNB-75
SW-620 = tested on: SW-620
UACC-257 = tested on: UACC-257
RPMI-8226 = tested on: RPMI-8226

Measured: GI50

O=C1CC(c2ccccc2)=Nc2ccccc2N1
inactive: COLO 205 98.9 µM | HCT-116 86.5 µM | HOP-62 > 100 µM | HOP-92 81.1 µM | HT-29 > 100 µM | MOLT-4 > 100 µM | NCI-H460 42 µM | OVCAR-4 > 100 µM | OVCAR-8 > 100 µM | SF-295 > 100 µM | SK-MEL-28 > 100 µM | SK-OV-3 > 100 µM | SNB-75 > 100 µM | SW-620 21.1 µM | UACC-257 > 100 µM

O=C1CC(CC(=O)C2CCCCC2=O)C(=O)N1 (centres undefined)
inactive: COLO 205 > 100 µM | HCT-116 > 100 µM | HOP-62 > 100 µM | HOP-92 > 100 µM | HT-29 > 100 µM | NCI-H460 > 100 µM | OVCAR-4 > 100 µM | OVCAR-8 > 100 µM | RPMI-8226 > 100 µM | SF-295 > 100 µM | SK-MEL-28 > 100 µM | SK-OV-3 > 100 µM | SNB-75 > 100 µM | SW-620 > 100 µM | UACC-257 > 100 µM

COc1cc(/C=N/N=C(\N)NO)c(Cl)cc1O
inactive: COLO 205 38.2 µM | HCT-116 38.6 µM | HOP-92 4.97 µM | HT-29 44.5 µM | MOLT-4 > 100 µM | NCI-H460 > 10 µM | OVCAR-4 43.8 µM | OVCAR-8 49.5 µM | RPMI-8226 > 100 µM | SF-295 96.2 µM | SK-MEL-28 38.5 µM | SK-OV-3 85.9 µM | SW-620 77.8 µM | UACC-257 > 100 µM

Oc1ccncc1-c1cnccc1O
inactive: COLO 205 > 100 µM | HCT-116 > 100 µM | HOP-92 > 100 µM | HT-29 > 100 µM | MOLT-4 > 100 µM | NCI-H460 37.5 µM | OVCAR-8 > 100 µM | RPMI-8226 > 100 µM | SF-295 > 100 µM | SK-MEL-28 > 100 µM | SK-OV-3 > 100 µM | SNB-75 > 100 µM | SW-620 > 100 µM | UACC-257 > 100 µM

C=C(COC(C)=O)CC(OC(C)=O)c1ccccc1 (centres undefined)
inactive: COLO 205 > 100 µM | HCT-116 > 100 µM | HOP-62 > 100 µM | HOP-92 > 100 µM | HT-29 > 100 µM | MOLT-4 52.2 µM | NCI-H460 > 100 µM | OVCAR-4 > 100 µM | OVCAR-8 > 100 µM | RPMI-8226 > 100 µM | SF-295 > 100 µM | SK-MEL-28 > 100 µM | SK-OV-3 > 100 µM | SNB-75 > 100 µM | SW-620 > 100 µM

CCOC(=O)/C(=C/c1cc(OC)ccc1OC)CC(=O)O
inactive: COLO 205 > 100 µM | HCT-116 > 100 µM | HOP-62 > 10 µM | HOP-92 > 100 µM | HT-29 > 94.4 µM | MOLT-4 > 25.7 µM | NCI-H460 > 100 µM | OVCAR-4 > 100 µM | OVCAR-8 > 100 µM | SF-295 > 100 µM | SK-MEL-28 > 100 µM | SK-OV-3 > 100 µM | SNB-75 > 100 µM | SW-620 > 100 µM | UACC-257 > 100 µM

[O-][S+]1CSSC1
inactive: COLO 205 17.1 µM | HCT-116 16.2 µM | HOP-62 36.3 µM | HOP-92 26.1 µM | HT-29 7.64 µM | MOLT-4 5.36 µM | OVCAR-4 16.7 µM | OVCAR-8 19.6 µM | SF-295 20.7 µM | SK-MEL-28 27.4 µM | SK-OV-3 24.3 µM | SNB-75 27.7 µM | SW-620 15 µM | UACC-257 14.8 µM

N#CC(=C1C=CC(=NO)C=C1)c1ccc(Cl)cc1
inactive: COLO 205 16.8 µM | HCT-116 7.52 µM | HOP-62 15.3 µM | HOP-92 20 µM | HT-29 5.56 µM | MOLT-4 5.74 µM | NCI-H460 18.2 µM | OVCAR-4 22.5 µM | OVCAR-8 19.1 µM | RPMI-8226 2.6 µM | SF-295 16.6 µM | SK-MEL-28 15.7 µM | SK-OV-3 22.2 µM | SNB-75 24.3 µM | SW-620 7.21 µM

Cc1ccc(S(=O)(=O)N(/N=C(\N)Oc2ccc(Cl)cc2)C(=N)Oc2ccc(Cl)cc2)cc1
inactive: COLO 205 > 100 µM | HCT-116 > 100 µM | HOP-62 > 100 µM | HOP-92 > 100 µM | HT-29 > 100 µM | MOLT-4 > 100 µM | NCI-H460 > 100 µM | OVCAR-4 > 100 µM | OVCAR-8 > 100 µM | SF-295 > 100 µM | SK-MEL-28 > 100 µM | SK-OV-3 > 100 µM | SNB-75 > 100 µM | SW-620 > 100 µM | UACC-257 > 100 µM

C#CCN(Cc1ccc2nc(-c3ccccc3)c(N)nc2c1)c1cc(OC)c(OC)c(OC)c1
inactive: COLO 205 21.2 µM | HCT-116 19.2 µM | HOP-62 39.2 µM | HT-29 23.4 µM | MOLT-4 12.5 µM | NCI-H460 22 µM | OVCAR-4 27.9 µM | OVCAR-8 30.4 µM | RPMI-8226 11.2 µM | SF-295 18.7 µM | SK-MEL-28 37.1 µM | SNB-75 30.4 µM | SW-620 36.5 µM

Cc1ccc(S(=O)(=O)c2ccc(C)cc2[N+](=O)[O-])c([N+](=O)[O-])c1
inactive: COLO 205 > 100 µM | HCT-116 > 100 µM | HOP-62 > 100 µM | HT-29 > 100 µM | MOLT-4 > 10 µM | NCI-H460 > 100 µM | OVCAR-4 89.9 µM | OVCAR-8 > 100 µM | RPMI-8226 > 100 µM | SF-295 > 100 µM | SK-MEL-28 > 100 µM | SNB-75 18.5 µM | SW-620 > 100 µM

O=[N+]([O-])c1ccc(/C=C/c2csnn2)cc1
inactive: HCT-116 > 100 µM | HOP-62 > 100 µM | HOP-92 70.5 µM | HT-29 > 100 µM | MOLT-4 > 100 µM | NCI-H460 > 100 µM | OVCAR-4 > 100 µM | OVCAR-8 > 100 µM | RPMI-8226 > 100 µM | SF-295 > 100 µM | SK-MEL-28 > 100 µM | SK-OV-3 > 100 µM | SW-620 > 100 µM | UACC-257 > 100 µM

COc1cc2c3cc1Oc1c(OC)c(OC)cc4c1[C@@H](Cc1ccc(O)c(c1)Oc1ccc(cc1)C[C@@H]3N(C)CC2)N(C)CC4.c1ccccc1
inactive: HCT-116 9.16 µM | HOP-62 18.1 µM | HOP-92 8.28 µM | HT-29 10.7 µM | MOLT-4 10.9 µM | NCI-H460 25.2 µM | OVCAR-8 16.8 µM | RPMI-8226 16.3 µM | SF-295 16.4 µM | SK-MEL-28 15.3 µM | SNB-75 6.27 µM | SW-620 16.2 µM | UACC-257 3.36 µM

C/C(=C\Cc1cc(O)ccc1O)CCc1c(C)cc(O)c(C=O)c1C [PANICEIN B3]
inactive: COLO 205 17.7 µM | HCT-116 19.3 µM | HOP-92 18.9 µM | HT-29 20.4 µM | MOLT-4 > 100 µM | NCI-H460 24.3 µM | OVCAR-4 26.4 µM | OVCAR-8 17.1 µM | RPMI-8226 > 100 µM | SF-295 27 µM | SK-MEL-28 24 µM | SK-OV-3 32.7 µM | SNB-75 13.9 µM | SW-620 45.9 µM

— ChEMBL document CHEMBL1201862, “PubChem BioAssay data set” (2004)
